Data reported in patent publication US20120122931A1, “INDOLE DERIVATIVE OR PHARMACEUTICALLY ACCEPTABLE SALT THEREOF” (KISSEI PHARMACEUTICAL CO., LTD., priority 2009, published 2012).

Biological target: T1, rat EP1 receptor (Rattus norvegicus, UniProt P70597)
T1 construct: expressed in transfected cells; host or cells: COS-1 cells, transient transfection with Lipofectamine 2000
T1 sequence (P70597 1-405): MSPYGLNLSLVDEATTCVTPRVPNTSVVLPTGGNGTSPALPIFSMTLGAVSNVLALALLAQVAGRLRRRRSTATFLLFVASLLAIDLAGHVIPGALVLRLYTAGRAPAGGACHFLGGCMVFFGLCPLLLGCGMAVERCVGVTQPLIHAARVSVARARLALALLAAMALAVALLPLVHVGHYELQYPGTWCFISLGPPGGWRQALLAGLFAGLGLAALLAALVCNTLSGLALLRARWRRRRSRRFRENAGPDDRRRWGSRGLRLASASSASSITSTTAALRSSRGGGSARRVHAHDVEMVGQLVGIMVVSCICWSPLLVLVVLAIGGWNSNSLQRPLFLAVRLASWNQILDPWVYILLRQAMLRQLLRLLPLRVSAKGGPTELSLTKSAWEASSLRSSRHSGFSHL
Assay: Test for confirmation of EP1 receptor antagonism: inhibition of prostaglandin E2-induced increase in intracellular calcium concentration (Method A or Method B)
Type: cell-based
Details: Method B (Calcium kit II Fluo 4, FDSS 7000); rat EP1 receptor-expressing cells; prostaglandin E2 10 nM
Description: (1) Preparation of Rat EP1 Expression vector
Using Rat Kidney BD Marathon-Ready cDNA (Nippon Becton Dickinson Company, Ltd.) as a template, a forward primer shown in SEQ ID NO. 1, and a reverse primer shown in SEQ ID NO. 2, a first run of PCR was carried out using KOD-Plus-Ver 2.0 (Toyobo Co., Ltd.). Further, using this amplification product as a template, a forward primer shown in SEQ ID NO. 3, and a reverse primer shown in SEQ ID NO. 4, a second run of PCR was carried out in the same manner. The amplification product obtained by the second run of PCR was incorporated into a vector (pcDNA3.1 D/V5-His-TOPO (registered trademark), Invitrogen Japan K. K.). By a conventional method, the vector containing this amplification product was introduced to E. coli (One Shot TOP10 Competent Cells, Invitrogen Corporation) to transform. This transformed E. coli was cultured in an LB agar medium for one day. After the culture, colonies were selected and cultured in an LB liquid medium containing 50 μg/mL of ampicillin. After the culture, the vector was purified using a QIAprep Spin Miniprep Kit (Qiagen K. K.). The base sequence of the insertion site of this vector (SEQ ID NO. 5) was compared with the rat EP1 base sequence (Ptger1) registered as an accession number NM_013100 in well-known database (NCBI), and as a result, they all matched except for a single base. Further, the amino acid sequence translated by the base sequence completely matched the amino acid sequence of the rat EP1 receptor registered as an NCBI accession number NP_037232. Therefore, it was confirmed that the cloned gene sequence was a base sequence of the rat EP1 receptor and the obtained amino acid sequence was that of the rat EP1 receptor. The pcDNA3.1 D/V5-His-TOPO (registered trademark) to which the nucleic acid shown in SEQ ID NO. 5 had been inserted was taken as a rat EP1-expressing vector.
(2) Preparation of Rat EP1 Receptor-Expressing Cells
COS-1 cells (Dainippon Sumitomo Pharma Co., Ltd.) were cultured until it reached confluence in an incubator at 37° C. under a 5% CO2 gas condition, using a D-MEM liquid medium (high glucose and L-glutamine contained, Invitrogen Corporation) to which a penicillin-streptomycin solution (Invitrogen Corporation, final concentration: 100 U/mL as benzylpenicillin; 100 μg/mL as streptomycin) as an antibiotic, MEM nonessential amino acids (Invitrogen Corporation, final Concentration: 0.1 mM), and fetal calf serum (Sanko Junyaku Co., Ltd., final concentration: 10%) were added.
(2-2) COS-1 Cell Subculture
The cells that had reached confluence were stripped with 0.05% trypsin/0.53 mM EDTA 4Na (Invitrogen Japan K. K.) and resuspended in the above liquid medium. The resuspended cells were diluted and cultured in the above liquid medium at a spread ratio from 1:4 to 1:8.
(2-3) Preparation of Cells for Introduction of Rat EP1-Expressing Vector
The cells that had reached confluence were stripped with 0.05% trypsin/0.53 mM EDTA.4Na, and resuspended in a D-MEM liquid medium (high glucose and L-glutamine contained, Invitrogen Corporation) to which an MEM nonessential amino acid (final concentration: 0.1 mM) and fetal calf serum (final concentration: 10%) were added. In each well of a Poly D-lysine-coated 96-well microplate (BD BioCoat (registered trademark), Nippon Becton Dickinson Company, Ltd.), this resuspended cell suspension culture was prepared to be 5×10^4 cells/well in 100 μL of the liquid medium, and seeded thereon. After seeding, the cells were cultured in an incubator at 37° C. under a 5% CO2 gas condition. At a point when the cells for introduction of a rat EP1-expressing vector were adhered (about 2 hours after seeding), introduction of the rat EP1-expressing vector was carried out in the following order.
(2-4) Introduction of Rat EP1-Expressing Vector
For introduction of the rat EP1-expressing vector, Lipofectamine 2000 (Invitrogen Japan K. K.) was used. […]

Row | Structure (SMILES) | IC50
1 | O=C(O)c1cccc(Cc2c(-c3ccccc3)[nH]c3cc(Br)ccc23)n1 [Example 16-38] | 36 nM
2 | O=C(O)c1cccc(Cc2c(-c3ccsc3)[nH]c3cc(Cl)c(F)cc23)n1 [Example 16-52, 6-(6-chloro-5-fluoro-2-thiophen-3-yl-1H-indol-3-ylmethyl)pyridine-2-carboxylic acid] | 43 nM
3 | CCOc1ccc2c(Cc3cccc(C(=O)O)n3)c(-c3ccc(F)cc3)[nH]c2c1 [Example 16-60, 6-[6-ethoxy-2-(4-fluorophenyl)-1H-indol-3-ylmethyl]pyridine-2-carboxylic acid] | 32 nM
4 | O=C(O)c1cccc(Cc2c(-c3ccc(F)cc3)[nH]c3cc(C4CC4)ccc23)n1 [Example 16-62, 6-[6-cyclopropyl-2-(4-fluorophenyl)-1H-indol-3-ylmethyl]pyridine-2-carboxylic acid] | 27 nM
5 | COc1cc2[nH]c(-c3cccnc3)c(Cc3cccc(C(=O)O)n3)c2cc1C [Example 16-66, 6-(6-methoxy-5-methyl-2-pyridin-3-yl-1H-indol-3-ylmethyl)pyridine-2-carboxylic acid] | 30 nM
6 | O=C(O)c1cccc(Cc2c(-c3ccccc3)[nH]c3cc(C4CC4)c(F)cc23)n1 [Example 16-68, 6-(6-cyclopropyl-5-fluoro-2-phenyl-1H-indol-3-ylmethyl)pyridine-2-carboxylic acid] | 34 nM
7 | O=C(O)c1cccc(Cc2c(-c3ccsc3)[nH]c3cc(C4CC4)c(F)cc23)n1 [Example 16-75, 6-(6-cyclopropyl-5-fluoro-2-thiophen-3-yl-1H-indol-3-ylmethyl)pyridine-2-carboxylic acid] | 16 nM
8 | COc1cc2c(Cc3cccc(C(=O)O)n3)c(-c3ccccc3)[nH]c2cc1C [Example 16-78, 6-(5-methoxy-6-methyl-2-phenyl-1H-indol-3-ylmethyl)pyridine-2-carboxylic acid] | 24 nM
9 | CCOc1cc2[nH]c(-c3ccsc3)c(Cc3cccc(C(=O)O)n3)c2cc1F [Example 16-79, 6-(6-ethoxy-5-fluoro-2-thiophen-3-yl-1H-indol-3-ylmethyl)pyridine-2-carboxylic acid] | 22 nM
10 | CCOc1cc2[nH]c(-c3ccccc3)c(Cc3cccc(C(=O)O)n3)c2cc1C [Example 16-84, 6-(6-ethoxy-5-methyl-2-phenyl-1H-indol-3-ylmethyl)pyridine-2-carboxylic acid] | 17 nM
11 | COc1cc2[nH]c(C(C)(C)C)c(Cc3cccc(C(=O)O)n3)c2cc1Cl [Example 16-89, 6-(2-tert-butyl-5-chloro-6-methoxy-1H-indol-3-ylmethyl)pyridine-2-carboxylic acid] | 22 nM
12 | Cc1cc2c(Cc3cccc(C(=O)O)n3)c(-c3ccsc3)[nH]c2cc1Cl [Example 16-92, 6-(6-chloro-5-methyl-2-thiophen-3-yl-1H-indol-3-ylmethyl)pyridine-2-carboxylic acid] | 30 nM

Continued by falling IC50, values first:

Row | IC50 | Structure (SMILES)
13 | 47 nM | Cc1cc2[nH]c(-c3ccc(F)cc3)c(Cc3cccc(C(=O)O)n3)c2cc1F [Example 16-54, 6-[5-fluoro-2-(4-fluorophenyl)-6-methyl-1H-indol-3-ylmethyl]pyridine-2-carboxylic acid]
14 | 47 nM | O=C(O)c1cccc(Cc2c(-c3ccc(F)cc3)[nH]c3cc(C4CC4)c(F)cc23)n1 [Example 16-74, 6-[6-cyclopropyl-5-fluoro-2-(4-fluorophenyl)-1H-indol-3-ylmethyl]pyridine-2-carboxylic acid]
15 | 43 nM | CCOc1ccc2c(Cc3cccc(C(=O)O)n3)c(-c3ccsc3)[nH]c2c1 [Example 16-61, 6-(6-ethoxy-2-thiophen-3-yl-1H-indol-3-ylmethyl)pyridine-2-carboxylic acid]
16 | 39 nM | Cc1cc2[nH]c(-c3ccsc3)c(Cc3cccc(C(=O)O)n3)c2cc1F [Example 16-56, 6-(5-fluoro-6-methyl-2-thiophen-3-yl-1H-indol-3-ylmethyl)pyridine-2-carboxylic acid]
17 | 38 nM | Cc1cc2[nH]c(-c3cccnc3)c(Cc3cccc(C(=O)O)n3)c2cc1C [Example 16-58, 6-(5,6-dimethyl-2-pyridin-3-yl-1H-indol-3-ylmethyl)pyridine-2-carboxylic acid]
18 | 31 nM | Cc1cc2[nH]c(-c3ccccc3)c(Cc3cccc(C(=O)O)n3)c2cc1F [Example 16-53, 6-(5-fluoro-6-methyl-2-phenyl-1H-indol-3-ylmethyl)pyridine-2-carboxylic acid]
19 | 27 nM | Cc1ccc2c(Cc3cccc(C(=O)O)n3)c(-c3ccc(F)cc3)[nH]c2c1 [Example 16-48, 6-[2-(4-fluorophenyl)-6-methyl-1H-indol-3-ylmethyl]pyridine-2-carboxylic acid]
20 | 26 nM | O=C(O)c1cccc(Cc2c(-c3ccccc3)[nH]c3cc(C(F)(F)F)c(F)cc23)n1 [Example 16-45]
21 | 23 nM | O=C(O)c1cccc(Cc2c(-c3ccccc3)[nH]c3cc(OC(F)F)ccc23)n1 [Example 16-73]
22 | 22 nM | O=C(O)c1cccc(Cc2c(-c3cccnc3)[nH]c3cc(C4CC4)ccc23)n1 [Example 16-67, 6-(6-cyclopropyl-2-pyridine-3-yl-1H-indol-3-ylmethyl)pyridine-2-carboxylic acid]
23 | 20 nM | O=C(O)c1cccc(Cc2c(-c3cccnc3)[nH]c3cc(C4CC4)c(F)cc23)n1 [Example 16-76, 6-(6-cyclopropyl-5-fluoro-2-pyridine-3-yl-1H-indol-3-ylmethyl)pyridine-2-carboxylic acid]
24 | 19 nM | Cc1cc2c(Cc3cccc(C(=O)O)n3)c(-c3ccccc3)[nH]c2cc1Cl [Example 16-59, 6-(6-chloro-5-methyl-2-phenyl-1H-indol-3-ylmethyl)pyridine-2-carboxylic acid]
25 | 18 nM | COc1cc2[nH]c(-c3ccc(F)cc3)c(Cc3cccc(C(=O)O)n3)c2cc1C [Example 16-85, 6-[2-(4-fluorophenyl)-6-methoxy-5-methyl-1H-indol-3-ylmethyl]pyridine-2-carboxylic acid]
26 | 18 nM | COc1cc2c(Cc3cccc(C(=O)O)n3)c(-c3ccsc3)[nH]c2cc1Cl [Example 16-86, 6-(6-chloro-5-methoxy-2-thiophen-3-yl-1H-indol-3-ylmethyl)pyridine-2-carboxylic acid]
27 | 14 nM | Cc1cc2[nH]c(-c3ccsc3)c(Cc3cccc(C(=O)O)n3)c2cc1C [Example 16-51, 6-(5,6-dimethyl-2-thiophen-3-yl-1H-indol-3-ylmethyl)pyridine-2-carboxylic acid]
28 | 14 nM | O=C(O)c1cccc(Cc2c(-c3ccsc3)[nH]c3cc(C4CC4)ccc23)n1 [Example 16-65, 6-(6-cyclopropyl-2-thiophen-3-yl-1H-indol-3-ylmethyl)pyridine-2-carboxylic acid]
29 | 11 nM | Cc1cc2[nH]c(-c3ccccc3)c(Cc3cccc(C(=O)O)n3)c2cc1C [Example 16-44, 6-(5,6-dimethyl-2-phenyl-1H-indol-3-ylmethyl)pyridine-2-carboxylic acid]
